Reference: PMC5158193, “Molecular Characterization and Functional Analysis of a Novel Calcium-Dependent Protein Kinase 4 from Eimeria tenella” (PLoS ONE, 2016)

molecular target: T1, rEtCDPK4 (Eimeria tenella, UniProt A0A165BP42); assay: PepTag C1-peptide non-radioactive kinase assay, A570; format: biochemical; conditions: 1 mM ATP, 1.3 mM CaCl2, 10 mM MgCl2, phosphatidylserine, 47.5 μM PepTag C1-peptide, pH 7.4, 30 °C
T1 construct: gene CDPK4; fragment, ORF bp 118-1777 (cDNA 303-1962); N-terminal 6xHis (pCold I), E. coli BL21; kinase domain and all six EF hands
T1 sequence (A0A165BP42 40-592): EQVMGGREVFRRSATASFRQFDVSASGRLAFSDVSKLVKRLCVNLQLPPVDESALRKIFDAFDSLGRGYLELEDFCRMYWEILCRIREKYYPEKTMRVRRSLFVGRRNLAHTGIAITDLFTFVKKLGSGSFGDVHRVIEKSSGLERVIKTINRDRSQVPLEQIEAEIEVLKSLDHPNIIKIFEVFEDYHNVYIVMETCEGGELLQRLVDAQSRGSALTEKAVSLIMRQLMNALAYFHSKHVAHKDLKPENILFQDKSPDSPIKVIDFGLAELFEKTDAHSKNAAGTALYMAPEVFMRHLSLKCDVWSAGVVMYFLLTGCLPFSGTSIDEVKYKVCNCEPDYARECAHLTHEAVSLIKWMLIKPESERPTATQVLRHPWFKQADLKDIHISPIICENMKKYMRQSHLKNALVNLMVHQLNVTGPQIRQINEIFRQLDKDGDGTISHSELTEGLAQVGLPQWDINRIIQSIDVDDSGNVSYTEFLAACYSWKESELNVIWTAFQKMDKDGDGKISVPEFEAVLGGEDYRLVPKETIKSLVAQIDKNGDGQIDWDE

Compound | kinase activity at 100 μM inhibitor
CC1CNCCN1S(=O)(=O)c1cccc2cnccc12 (centres unmarked) [H-7] | W-7, H-7, H-89, staurosporine, Ro-31-8220 and myristoylated peptide significantly decreased enzyme activity
O=S(=O)(NCCNC/C=C/c1ccc(Br)cc1)c1cccc2cnccc12 [H-89] | W-7, H-7, H-89, staurosporine, Ro-31-8220 and myristoylated peptide significantly decreased enzyme activity
Cn1cc(C2=C(c3cn(CCCSC(=N)N)c4ccccc34)C(=O)NC2=O)c2ccccc21 [Ro-31-8220] | W-7, H-7, H-89, staurosporine, Ro-31-8220 and myristoylated peptide significantly decreased enzyme activity
NCCCCCCNS(=O)(=O)c1cccc2c(Cl)cccc12 [W-7] | W-7, H-7, H-89, staurosporine, Ro-31-8220 and myristoylated peptide significantly decreased enzyme activity
CN[C@@H]1C[C@H]2O[C@@](C)([C@@H]1OC)n1c3ccccc3c3c4c(c5c6ccccc6n2c5c31)C(=O)NC4 [staurosporine] | W-7, H-7, H-89, staurosporine, Ro-31-8220 and myristoylated peptide significantly decreased enzyme activity
